Assay results: patent publication US20260103465A1, “GLYCOGEN SYNTHASE KINASE 3 INHIBITORS AND USES THEREOF” (The Broad Institute, Inc., priority 2023, published 2026)
Where two headings read alike, the source gives them in different places.

Legend:
[1] = Human liver microsomal stability; assay type: in vitro ADME; details: human liver microsomes
Experimental: Stability of compound (5 μL of a 10 mM DMSO solution) in human liver microsomes was tested in duplicate by incubating compound at 1 μM for 60 minutes at 37° C. Compound level at 60 minutes was compared to level at 0 minutes, and percent remaining was calculated. Order by selecting Microsomal Stability in Prometheus, checking boxes for desired species. Assay Controls: microsomes with NADPH without compound-matrix interference. Microsomes plus compound without NADPH—non-enzymatic instability.

[2] = system: MDR1-MDCK cell monolayers; assay: MDR1/MDCK permeability assay; assay type: in vitro ADME; details: for MDCK Permeability (MDR1-MDCK); Mean; Papp(A-B) (10^−6 cm/s): A to B; for MDCK Permeability (MDR1-MDCK); Mean; Papp(B-A) (10^−6 cm/s): B to A; for MDCK Permeability (MDR1-MDCK); Mean; P. Ratio(B-A/A-B) Efflux Ratio / MIDCK Permeability (MDR1-MDCK); Mean; P. Ratio(B-A/A-B) Efflux Ratio: Papp B-A/A-B
Source text: The MDR1/MDCK assay is run at WuXi and Absorption Systems. This assay is used to determine the blood-brain barrier (BBB) penetration potential of a test compound using MDR1-MDCK cell monolayers. Catalog number EA203.
• The percent recovery of the test compound from the Transwell® wells containing MDR1-MDCK cell monolayers • The apparent permeability (Papp) in both directions • The efflux ratio (Papp B to A)/(Papp A to B) • The blood-brain barrier penetration potential classification: • High when • Papp A to B≥3.0×10^−6 cm/s, and efflux<3.0 • Moderate when • Papp A to B≥3.0×10^−6 cm/s, and 10>efflux≥3.0 • Low when either • Papp A to B≥3.0×10^−6 cm/s, and […], or when • Papp A to B<[…].
• Test compound at 5 μM in HBSSg with maximum DMSO concentration not greater than 1%.
• Confluent monolayers of MDR1-MDCK cells, 7 to 11 days old.
• Receiver well with 1% BSA in modified Hanks buffer (HBSSg) • Apical and basolateral side at pH 7.4 • Dose two monolayers in each direction (N=2) • Dose apical side for (A to B) assessment • Dose basolateral side for (B to A) assessment • Sample both apical and basolateral sides at 120 minutes • Determine the concentrations of test compound using a generic LC-MS/MS method with a minimum 4 point calibration curve.
• The quality of the cell monolayer batch is verified using control compounds before monolayers are released for use • The quality of each monolayer used in the assay is verified by a TEER measurement and by calculating the Papp for a control compound.

[3] = target: T1, GSK3a (GST-full length GSK3a) (Homo sapiens, UniProt P49840); assay: GSK3a TR-FRET kinase inhibition assay; assay type: biochemical
T1 construct: GST-full length GSK3a [SignalChem G08-10G]; purchased SignalChem G08-10G
T1 sequence (P49840 whole entry): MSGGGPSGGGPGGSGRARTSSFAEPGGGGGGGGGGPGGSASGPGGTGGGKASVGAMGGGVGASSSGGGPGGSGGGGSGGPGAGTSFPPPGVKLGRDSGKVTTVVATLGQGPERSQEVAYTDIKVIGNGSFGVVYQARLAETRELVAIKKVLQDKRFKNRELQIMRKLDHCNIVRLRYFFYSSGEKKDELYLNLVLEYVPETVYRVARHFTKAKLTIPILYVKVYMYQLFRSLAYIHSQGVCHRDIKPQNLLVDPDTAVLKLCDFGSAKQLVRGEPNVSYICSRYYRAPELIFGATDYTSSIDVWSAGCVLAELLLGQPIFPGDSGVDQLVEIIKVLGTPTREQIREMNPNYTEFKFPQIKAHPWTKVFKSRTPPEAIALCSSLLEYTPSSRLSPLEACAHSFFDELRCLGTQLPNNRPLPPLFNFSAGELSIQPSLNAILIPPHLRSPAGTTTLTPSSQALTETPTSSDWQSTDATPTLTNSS
Procedure, shortened: (§1)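 GST-tagged full-length human kinase (1 nM), pre-incubated 30 min with compound, then reacted 100 min at ambient temperature at pH 7.5 with 200 nM biotinylated phospho-S645 glycogen synthase 631–650 peptide and ATP at 2 μM–1 mM. After EDTA quench, Tb-pSer641 antibody/streptavidin-d2 TR-FRET 665/615 ratio fitted for IC50.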

[4] = target: T2, GSK3b (GST-full length GSK3b) (Homo sapiens, UniProt P49841); assay: GSK3b TR-FRET kinase inhibition assay; assay type: biochemical
T2 construct: GST-full length GSK3b: [SignalChem G08-9G]; purchased SignalChem G08-9G
T2 sequence (P49841 whole entry): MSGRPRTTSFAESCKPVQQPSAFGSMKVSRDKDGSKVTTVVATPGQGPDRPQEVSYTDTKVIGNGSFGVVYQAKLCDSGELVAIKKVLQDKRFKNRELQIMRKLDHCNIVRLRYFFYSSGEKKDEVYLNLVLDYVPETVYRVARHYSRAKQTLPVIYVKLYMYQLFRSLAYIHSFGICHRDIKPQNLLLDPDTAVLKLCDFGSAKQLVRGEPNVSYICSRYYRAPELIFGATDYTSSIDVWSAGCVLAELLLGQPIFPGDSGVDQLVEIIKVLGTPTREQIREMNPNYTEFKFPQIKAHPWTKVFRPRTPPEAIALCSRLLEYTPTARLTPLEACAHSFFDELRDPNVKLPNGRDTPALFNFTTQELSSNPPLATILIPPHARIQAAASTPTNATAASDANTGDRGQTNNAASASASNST
Procedure, shortened: as §1

[5] = 4 μM ATP, read-out: GSK3α TR-FRET 4 μM ATP GMean IC50
[6] = 2 μM ATP, read-out: GSK3β TR-FRET 2 μM ATP GMean IC50
[7] = 1 mM ATP, Table 3, read-out: GSK3a TR-FRET 1 mM ATP Average IC50
[8] = 1 mM ATP, Table 3, read-out: GSK3b TR-FRET 1 mM ATP Average IC50
[9] = 1 mM ATP, Table 4, read-out: GSK3α TR-FRET 1 mM ATP GMean IC50
[10] = 1 mM ATP, Table 4, read-out: GSK3β TR-FRET 1 mM ATP GMean IC50

SMILES | Microsome Stability (Human) (DMPK_BIIB); Mean; in vitro t1/2 ([1]; Table 4) [min] | MDCK Permeability (MDR1-MDCK); Mean; Papp(A-B) (10^−6 cm/s) ([2]; Table 4) | MDCK Permeability (MDR1-MDCK); Mean; Papp(B-A) (10^−6 cm/s) ([2]; Table 4) | MDCK Permeability (MDR1-MDCK); Mean; P. Ratio(B-A/A-B) Efflux Ratio ([2]; Table 4) | IC50 [3, 5] [nM] | IC50 [4, 6] [nM] | Microsome Stability (Human) (DMPK_BIIB); Mean; in vitro t1/2 ([1]; Table 3) [min] | MDCK Permeability (MDR1-MDCK); Mean; Papp(A-B) (10^−6 cm/s) ([2]; Table 3) | MDCK Permeability (MDR1-MDCK); Mean; Papp(B-A) (10^−6 cm/s) ([2]; Table 3) | MIDCK Permeability (MDR1-MDCK); Mean; P. Ratio(B-A/A-B) Efflux Ratio ([2]; Table 3) | IC50 [3, 7] [nM] | IC50 [4, 8] [nM] | IC50 [3, 9] [nM] | IC50 [4, 10] [nM] | IC50 ([3]; 10 μM ATP, read-out: GSK3a 10 μM ATP Average IC50) [nM] | IC50 ([4]; 10 μM ATP, read-out: GSK3b 10 μM ATP Average IC50) [nM] | IC50 ([4]; 100 μM ATP, read-out: GSK3b 100 μM ATP Average IC50) [nM]
CCC1(c2cccc(-c3cn(C)nc3C)c2)C2=C(CC(C)(C)CC2=O)Nc2ncc(F)cc21 (single isomer, unassigned) [Compound 1032B] | 6.4 | 2.3 10^−6 cm/s | 26 10^−6 cm/s | 11 | ≤ 100 | ≤ 100 | – | – | – | – | – | – | – | – | – | – | –
CC1(C)CC(=O)C2=C(C1)Nc1ncc(F)cc1C2(C)c1ccccc1 (single isomer, unassigned) [Compound 107B] | – | – | – | – | – | – | 94 | 30 10^−6 cm/s | 18 10^−6 cm/s | 0.61 | 1000 to 5000 | 1000 to 5000 | – | – | – | – | –
CCC1(c2cccc(-c3c(F)cncc3OC)c2)C2=C(CC(C)(C)CC2=O)Nc2ncc(F)cc21 (single isomer, unassigned) [Compound 161B] | 5.6 | 5.2 10^−6 cm/s | 33 10^−6 cm/s | 6.4 | ≤ 100 | ≤ 100 | – | – | – | – | 100 to 1000 | 1000 to 5000 | ≤ 100 | ≤ 100 | – | – | –
CCC1(c2cccc(-c3ccncc3OC)c2)C2=C(CC(C)(C)CC2=O)Nc2ncc(F)cc21 (single isomer, unassigned) [Compound 1037B] | 5.6 | 2.7 10^−6 cm/s | 26 10^−6 cm/s | 9.6 | ≤ 100 | ≤ 100 | – | – | – | – | – | – | – | – | – | – | –
CCC1(c2cccc(-c3cc(C)nn3C)c2)C2=C(CC(C)(C)CC2=O)Nc2ncccc21 (single isomer, unassigned) [Compound 1024B] | 4.3 | 2.8 10^−6 cm/s | 31 10^−6 cm/s | 11 | ≤ 100 | 100 to 1000 | – | – | – | – | – | – | – | – | – | – | –
CCC1(c2cccc(O)c2)C2=C(CC(C)(C)CC2=O)Nc2ncc(F)cc21 (single isomer, unassigned) [Compound 1010B] | 11 | 0.80 10^−6 cm/s | 39 10^−6 cm/s | 48 | ≤ 100 | ≤ 100 | – | – | – | – | – | – | – | – | – | – | –
CCC1(c2ccccc2)C2=C(CC(C)(C)CC2=O)Nc2ncccc21 (single isomer, unassigned) [102 B] | 1.2 | 6.7 10^−6 cm/s | 29 10^−6 cm/s | 4.3 | > 5000 | > 5000 | – | – | – | – | – | – | – | – | – | – | –
CCC1(c2cccc(C(C)C)c2)C2=C(CC(C)(C)CC2=O)Nc2ncccc21 (single isomer, unassigned) [Compound 1011B] | 3.8 | 15 10^−6 cm/s | 28 10^−6 cm/s | 1.9 | ≤ 100 | ≤ 100 | – | – | – | – | – | – | – | – | – | – | –
CCC1(c2cccc(O)c2)C2=C(CC(C)(C)CC2=O)Nc2ncccc21 (single isomer, unassigned) [Compound 1004A] | 7.7 | 1.2 10^−6 cm/s | 42 10^−6 cm/s | 37 | ≤ 100 | ≤ 100 | – | – | – | – | – | – | – | – | – | – | –
CC(C)(C)Cc1cnc2c(c1)C(C)(c1ccccc1)C1=C(CC(C)(C)CC1=O)N2 (single isomer, unassigned) [Compound 129A] | – | – | – | – | – | – | 11 | 2.1 10^−6 cm/s | 1.2 10^−6 cm/s | 0.60 | – | 5000 to 20000 | – | – | 20000 to 60000 | 5000 to 20000 | 20000 to 60000
CCC1(c2ccccc2)C2=C(Nc3ncccc31)C(F)C(C)(C)CC2=O (single isomer, unassigned) [Compound 1006C] | 37 | 18 10^−6 cm/s | 31 10^−6 cm/s | 1.8 | 1000 to 5000 | 1000 to 5000 | – | – | – | – | – | – | – | – | – | – | –
CCC1(c2cccc(-c3ccnc(C)c3C)c2)C2=C(CC(C)(C)CC2=O)Nc2ncccc21 (single isomer, unassigned) [147 B] | 14 | 8.1 10^−6 cm/s | 31 10^−6 cm/s | 3.8 | ≤ 100 | ≤ 100 | – | – | – | – | – | – | 100 to 1000 | 1000 to 5000 | – | – | –
CCC1(c2cccc(O)c2)C2=C(CC(C)(C)CC2=O)Nc2ncc(F)cc21 (single isomer, unassigned) [Compound 1010A] | 6.1 | 0.60 10^−6 cm/s | 28 10^−6 cm/s | 51 | > 5000 | > 5000 | – | – | – | – | – | – | – | – | – | – | –
CCC1(c2cccc(-c3cccnc3)c2)C2=C(CC(C)(C)CC2=O)Nc2ncccc21 (single isomer, unassigned) [Compound 1015A] | 2.8 | 4.7 10^−6 cm/s | 44 10^−6 cm/s | 9.5 | ≤ 100 | ≤ 100 | – | – | – | – | – | – | – | – | – | – | –
